Measured values reported in ChEMBL document CHEMBL1158456, “Synergistic effect of zanamivir-porphyrin conjugates on inhibition of neuraminidase and inactivation of influenza virus” (J Med Chem, 2009).
Active and inactive are the calls of the source. The rule behind the calls is not given here.

Key:
Neuraminidase [1] = molecular target: T1, Neuraminidase (Influenza A virus, UniProt B4URF0); test: Inhibition of influenza A virus A/WSN/1933 H1N1 neuraminidase using NA-STAR substrate after 15 mins incubation at room temperature by fluorescent assay
T1 sequence (B4URF0 whole entry): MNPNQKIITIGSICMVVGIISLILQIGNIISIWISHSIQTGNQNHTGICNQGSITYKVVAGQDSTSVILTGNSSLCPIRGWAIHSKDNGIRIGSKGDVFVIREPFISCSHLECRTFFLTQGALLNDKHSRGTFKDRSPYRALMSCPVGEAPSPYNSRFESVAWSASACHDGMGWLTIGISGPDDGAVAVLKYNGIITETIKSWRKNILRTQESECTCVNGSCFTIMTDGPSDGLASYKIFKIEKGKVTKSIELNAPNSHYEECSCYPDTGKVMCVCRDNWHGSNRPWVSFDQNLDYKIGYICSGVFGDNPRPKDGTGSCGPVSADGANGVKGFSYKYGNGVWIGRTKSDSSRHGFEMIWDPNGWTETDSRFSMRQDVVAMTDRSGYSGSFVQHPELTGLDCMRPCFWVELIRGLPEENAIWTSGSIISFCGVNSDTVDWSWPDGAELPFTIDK

Influenza A virus [2] = test: Antiviral activity against influenza A virus A/WSN/1933 H1N1 infected in MDCK cells assessed as reduction of infectious viral titer at 500 nM incubated for 1 hr under laminar flow hood light before infection measured after 3 days; format: functional, organism-based
Influenza A virus [3] = test: Antiviral activity against influenza A virus A/WSN/1933 H1N1 infected in MDCK cells assessed as reduction of infectious viral titer at 100 nM incubated for 1 hr under laminar flow hood light before infection measured after 3 days; format: functional, organism-based
Influenza A virus [4] = test: Antiviral activity against influenza A virus A/WSN/1933 H1N1 infected in MDCK cells assessed as protection against virus-induced cytopathic effect after 48 hrs; format: functional, organism-based
Influenza A virus [5] = test: Antiviral activity against influenza A virus A/WSN/1933 H1N1 infected in MDCK cells after 3 days by plaque reduction assay; format: functional, organism-based; conditions: 72 h
Influenza A virus [6] = test: Inhibition of influenza A virus A/WSN/1933 H1N1-induced hemagglutinination of chicken RBC; format: functional, organism-based
[7] = tested on: Influenza A virus (A/Vietnam/1194/2004(H5N1)); test: Binding affinity to influenza A virus A/Vietnam/1194/2004 H5N1 hemagglutininin to alpha-2,3-sialic acid galactosyl oligomers
Influenza A virus [8] = test: Antiviral activity against influenza A virus A/Vietnam/1194/2004 H5N1 infected in MDCK cells assessed as protection against virus-induced cytopathic effect after 48 hrs; format: functional, organism-based
[9] = molecular target: Neuraminidase (Influenza A virus) (UniProt B4URF0); test: Inhibition of influenza A virus A/WSN/1933 H1N1 neuraminidase at 10 nM using NA-STAR substrate after 15 mins incubation at room temperature by fluorescent assay relative to control
Neuraminidase (Influenza A virus), sequence (B4URF0 as listed by the source): as the sequence (B4URF0 whole entry) above

Influenza A virus [10] = test: Antiviral activity against influenza A virus A/Vietnam/1194/2004 H5N1 infected in MDCK cells after 3 days by plaque reduction assay; format: functional, organism-based; conditions: 72 h
Influenza A virus [11] = test: Ratio of EC50 for drug to EC50 for zanamivir against influenza A virus A/Vietnam/1194/2004 H5N1 by plaque reduction assay; format: functional
[12] = molecular target: Neuraminidase (Influenza A virus) (UniProt B4URF0); test: Inhibition of influenza A virus A/Vietnam/1194/2004 H5N1 neuraminidase at 10 nM using NA-STAR substrate after 15 mins incubation at room temperature by fluorescent assay relative to control
[13] = molecular target: Neuraminidase (Influenza A virus) (UniProt B4URF0); test: Inhibition of influenza A virus A/WSN/1933 H1N1 neuraminidase at 40 nM using NA-STAR substrate after 15 mins incubation at room temperature by fluorescent assay relative to control
[14] = molecular target: Neuraminidase (Influenza A virus) (UniProt B4URF0); test: Inhibition of influenza A virus A/Vietnam/1194/2004 H5N1 neuraminidase at 40 nM using NA-STAR substrate after 15 mins incubation at room temperature by fluorescent assay relative to control
Influenza A virus [15] = test: Antiviral activity against influenza A virus A/WSN/1933 H1N1 infected in MDCK cells assessed as reduction of infectious viral titer at 500 nM incubated for 1 hr under laminar flow hood light before infection measured after 3 days in presence of 10 fold excess zanamivir; format: functional, organism-based
Influenza A virus [16] = test: Antiviral activity against influenza A virus A/WSN/1933 H1N1 infected in MDCK cells assessed as reduction of infectious viral titer at 100 nM incubated for 1 hr under laminar flow hood light before infection measured after 3 days in presence of 10 fold excess zanamivir; format: functional, organism-based
Influenza A virus [17] = test: Antiviral activity against influenza A virus A/WSN/1933 H1N1 infected in MDCK cells assessed as reduction of infectious viral titer at 0.4 to 10 uM incubated for 1 hr measured after 3 days relative to control; format: functional; design: scale not given: the % may be the effect or the level left
Influenza A virus [18] = test: Antiviral activity against influenza A virus A/WSN/1933 H1N1 infected in MDCK cells assessed as reduction of infectious viral titer at 40 nM incubated for 1 hr measured after 3 days relative to control; format: functional; design: scale not given: the % may be the effect or the level left
Influenza A virus [19] = test: Antiviral activity against influenza A virus A/WSN/1933 H1N1 infected in MDCK cells assessed as reduction of infectious viral titer at 200 nM incubated for 1 hr measured after 3 days; format: functional; design: scale not given: the % may be the effect or the level left
Influenza A virus [20] = test: Antiviral activity against influenza A virus A/WSN/1933 H1N1 infected in MDCK cells assessed as reduction of infectious viral titer incubated for 1 hr measured after 3 days; format: functional, organism-based
Neuraminidase [21] = molecular target: T1, Neuraminidase; test: Inhibition of influenza A virus A/Vietnam/1194/2004 H5N1 neuraminidase using NA-STAR substrate after 15 mins incubation at room temperature by fluorescent assay

| SMILES | IC50 (Neuraminidase [1]) [nM] | Activity (Influenza A virus [2]) | Activity (Influenza A virus [3]) | Activity (Influenza A virus [4]) | EC50 (Influenza A virus [5]) [nM] | Activity (Influenza A virus [6]) | Activity [7] | Activity (Influenza A virus [8]) | further results |
| --- | --- | --- | --- | --- | --- | --- | --- | --- | --- |
| CC(=O)N[C@H]1[C@H]([C@H](OC(=O)NCc2cn(CCOCOc3ccc(-c4c5nc(c(-c6ccc(OCOCCn7cc(CNC(=O)O[C@@H]([C@@H]8OC(C(=O)O)=C[C@H](N=C(N)N)[C@H]8NC(C)=O)[C@H](O)CO)nn7)cc6)c6ccc([nH]6)c(-c6ccc(OCOCCn7cc(CNC(=O)O[C@@H]([C@@H]8OC(C(=O)O)=C[C@H](N=C(N)N)[C@H]8NC(C)=O)[C@H](O)CO)nn7)cc6)c6nc(c(-c7ccc(OCOCCn8cc(CNC(=O)O[C@@H]([C@@H]9OC(C(=O)O)=C[C@H](N=C(N)N)[C@H]9NC(C)=O)[C@H](O)CO)nn8)cc7)c7ccc4[nH]7)C=C6)C=C5)cc3)nn2)[C@H](O)CO)OC(C(=O)O)=C[C@@H]1N=C(N)N | 11 | – | – | – | – | – | – | – | – |
| Oc1ccc(-c2c3nc(c(-c4ccc(O)cc4)c4ccc([nH]4)c(-c4ccc(O)cc4)c4nc(c(-c5ccc(O)cc5)c5ccc2[nH]5)C=C4)C=C3)cc1 | – | inactive | inactive | – | – | – | – | – | – |
| CC(=O)N[C@H]1[C@H]([C@H](OC(=O)NCc2cn(CCOCCOCCOCCNC(=O)COc3ccc(-c4c5nc(c(-c6ccc(OCC(=O)NCCOCCOCCOCCn7cc(CNC(=O)O[C@@H]([C@@H]8OC(C(=O)O)=C[C@H](NC(=N)N)[C@H]8NC(C)=O)[C@H](O)CO)nn7)cc6)c6ccc([nH]6)c(-c6ccc(OCC(=O)NCCOCCOCCOCCn7cc(CNC(=O)O[C@@H]([C@@H]8OC(C(=O)O)=C[C@H](NC(=N)N)[C@H]8NC(C)=O)[C@H](O)CO)nn7)cc6)c6nc(c(-c7ccc(OCC(=O)NCCOCCOCCOCCn8cc(CNC(=O)O[C@@H]([C@@H]9OC(C(=O)O)=C[C@H](NC(=N)N)[C@H]9NC(C)=O)[C@H](O)CO)nn8)cc7)c7ccc4[nH]7)C=C6)C=C5)cc3)nn2)[C@H](O)CO)OC(C(=O)O)=C[C@@H]1NC(=N)N | – | – | – | Active | 0.5 | inactive | inactive | Active | – |
| CC(=O)N[C@H]1[C@H]([C@H](OC(=O)NCc2cn(CCOCOc3ccc(-c4c5nc(c(-c6ccc(OCOCCn7cc(CNC(=O)O[C@@H]([C@@H]8OC(C(=O)O)=C[C@H](NC(=N)N)[C@H]8NC(C)=O)[C@H](O)CO)nn7)cc6)c6ccc([nH]6)c(-c6ccc(OCOCCn7cc(CNC(=O)O[C@@H]([C@@H]8OC(C(=O)O)=C[C@H](NC(=N)N)[C@H]8NC(C)=O)[C@H](O)CO)nn7)cc6)c6nc(c(-c7ccc(OCOCCn8cc(CNC(=O)O[C@@H]([C@@H]9OC(C(=O)O)=C[C@H](NC(=N)N)[C@H]9NC(C)=O)[C@H](O)CO)nn8)cc7)c7ccc4[nH]7)C=C6)C=C5)cc3)nn2)[C@H](O)CO)OC(C(=O)O)=C[C@@H]1NC(=N)N | – | – | – | Active | 2 | inactive | inactive | Active | inhibition [9]: 24%; EC50 (Influenza A virus [10]): 11 nM; Ratio EC50 (Influenza A virus [11]): 55; inhibition [12]: 24%; inhibition [13]: 51%; inhibition [14]: 51% |
| CC(=O)N[C@H]1[C@H]([C@H](OC(=O)NCc2cn(CCOCCOCCOCCOCCNC(=O)COc3ccc(-c4c5nc(c(-c6ccc(OCC(=O)NCCOCCOCCOCCOCCn7cc(CNC(=O)O[C@@H]([C@@H]8OC(C(=O)O)=C[C@H](NC(=N)N)[C@H]8NC(C)=O)[C@H](O)CO)nn7)cc6)c6ccc([nH]6)c(-c6ccc(OCC(=O)NCCOCCOCCOCCOCCn7cc(CNC(=O)O[C@@H]([C@@H]8OC(C(=O)O)=C[C@H](NC(=N)N)[C@H]8NC(C)=O)[C@@H](O)CO)nn7)cc6)c6nc(c(-c7ccc(OCC(=O)NCCOCCOCCOCCOCCn8cc(CNC(=O)O[C@@H]([C@@H]9OC(C(=O)O)=C[C@H](NC(=N)N)[C@H]9NC(C)=O)[C@H](O)CO)nn8)cc7)c7ccc4[nH]7)C=C6)C=C5)cc3)nn2)[C@H](O)CO)OC(C(=O)O)=C[C@@H]1NC(=N)N | – | Active | Active | Active | 0.1 | inactive | inactive | Active | Activity (Influenza A virus [15]): inactive; Activity (Influenza A virus [16]): inactive; Activity (Influenza A virus [17]): 60%; Activity (Influenza A virus [18]): <20%; Activity (Influenza A virus [19]): >95%; Activity (Influenza A virus [20]): Dose-dependent effect |
| CC(=O)N[C@H]1[C@H]([C@H](OC(=O)NCc2cn(CCOCCOCCOCCOCCNC(=O)COc3ccc(-c4c5nc(c(-c6ccc(OCC(=O)NCCOCCOCCOCCOCCn7cc(CNC(=O)O[C@@H]([C@@H]8OC(C(=O)O)=C[C@H](N=C(N)N)[C@H]8NC(C)=O)[C@H](O)CO)nn7)cc6)c6ccc([nH]6)c(-c6ccc(OCC(=O)NCCOCCOCCOCCOCCn7cc(CNC(=O)O[C@@H]([C@@H]8OC(C(=O)O)=C[C@H](N=C(N)N)[C@H]8NC(C)=O)[C@@H](O)CO)nn7)cc6)c6nc(c(-c7ccc(OCC(=O)NCCOCCOCCOCCOCCn8cc(CNC(=O)O[C@@H]([C@@H]9OC(C(=O)O)=C[C@H](N=C(N)N)[C@H]9NC(C)=O)[C@H](O)CO)nn8)cc7)c7ccc4[nH]7)C=C6)C=C5)cc3)nn2)[C@H](O)CO)OC(C(=O)O)=C[C@@H]1N=C(N)N | 3.7 | – | – | – | – | – | – | – | IC50 (Neuraminidase [21]): 7.6 nM |
| CC(=O)N[C@H]1[C@H]([C@H](O)[C@H](O)CO)OC(C(=O)O)=C[C@@H]1NC(=N)N [ZANAMIVIR] | – | inactive | inactive | – | 11 | – | – | – | EC50 (Influenza A virus [10]): 613 nM |
| CC(=O)N[C@H]1[C@H]([C@H](OC(=O)NCc2cn(CCOCCOCCOCCNC(=O)COc3ccc(-c4c5nc(c(-c6ccc(OCC(=O)NCCOCCOCCOCCn7cc(CNC(=O)O[C@@H]([C@@H]8OC(C(=O)O)=C[C@H](N=C(N)N)[C@H]8NC(C)=O)[C@H](O)CO)nn7)cc6)c6ccc([nH]6)c(-c6ccc(OCC(=O)NCCOCCOCCOCCn7cc(CNC(=O)O[C@@H]([C@@H]8OC(C(=O)O)=C[C@H](N=C(N)N)[C@H]8NC(C)=O)[C@H](O)CO)nn7)cc6)c6nc(c(-c7ccc(OCC(=O)NCCOCCOCCOCCn8cc(CNC(=O)O[C@@H]([C@@H]9OC(C(=O)O)=C[C@H](N=C(N)N)[C@H]9NC(C)=O)[C@H](O)CO)nn8)cc7)c7ccc4[nH]7)C=C6)C=C5)cc3)nn2)[C@H](O)CO)OC(C(=O)O)=C[C@@H]1N=C(N)N | 8.5 | – | – | – | – | – | – | – | IC50 (Neuraminidase [21]): 16 nM |
